Results: US20240217968A1, “PHARMACEUTICAL COMPOUND” (DUKE STREET BIO LIMITED, priority 2021, published 2024)

Molecular target: T1, recombinant human Flag-tagged PARP7 (amino acids 456-657) (Homo sapiens, UniProt Q7Z3E1)
T1 construct: recombinant human Flag-tagged PARP7 (amino acids 456-657)
T1 sequence (Q7Z3E1 456-657): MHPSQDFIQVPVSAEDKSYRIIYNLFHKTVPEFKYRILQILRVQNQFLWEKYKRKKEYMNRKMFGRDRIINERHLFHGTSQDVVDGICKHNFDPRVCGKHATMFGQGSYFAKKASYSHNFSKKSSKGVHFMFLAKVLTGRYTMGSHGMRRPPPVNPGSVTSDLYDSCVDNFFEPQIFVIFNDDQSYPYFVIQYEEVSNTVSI
Assay: PARP7 biochemical DELFIA assay (auto-MARylation)
Settings: DELFIA readout, IC50 class
Procedure, shortened: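 Readout is DELFIA time-resolved Eu fluorescence (Ex337 nm, Em620 nm) of biotin-ADP-ribose on immobilised Flag-tagged PARP7 456-657. Enzyme (12.5-37.5 nM as added) sat 30 min with compound before biotin-NAD+ (15 μM solution, pH 7.5 HEPES buffer) started 2-3 h room-temperature self-modification, stopped with excess NAD+.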

SMILES | IC50 [nM]
CC(COCCC(=O)N1CCN(c2ncc(C(C)(C)C)cn2)CC1)n1nc(C(F)(F)F)c2c(=O)[nH]ncc21 (single isomer, unassigned) [Compound 500] | ≤ 100
CC(COCCC(=O)N1CCN(c2ncc(C(C)(C)C)cn2)CC1)n1nc(C(F)(F)F)c2c(=O)[nH]ncc21 (single isomer, unassigned) [Compound 501] | ≤ 100
N#Cc1ccc(N2CCN(C(=O)c3cccc(Cc4cccc5c(=O)[nH]ncc45)c3)CC2)nc1 [Compound 1, 6-(4-(3-((1-oxo-1,2-dihydrophthalazin-5-yl)methyl)benzoyl)piperazin-1-yl)nicotinonitrile] | ≤ 100
O=C(c1cccc(Cc2cccc3c(=O)[nH]ncc23)c1)N1CCN(C(=O)C2CC2)CC1 [Compound 2] | 1000 to 10000
O=C(COCCOc1cccc2c(=O)[nH]ncc12)N1CCN(c2ncc(C(F)(F)F)cn2)CC1 [Compound 3] | 100 to 1000
O=C(CCOCCc1cccc2c(=O)[nH]ncc12)N1CCN(c2ncc(C(F)(F)F)cn2)CC1 [Compound 4] | ≤ 100
N#Cc1ccc(N2CCN(C(=O)c3cccc(CN4CCc5c4cn[nH]c5=O)c3)CC2)nc1 [Compound 5] | 1000 to 10000
O=C(CCOCCN1CCc2c1cn[nH]c2=O)N1CCN(c2ncc(C(F)(F)F)cn2)CC1 [Compound 6] | 100 to 1000
N#Cc1ccc(N2CCN(C(=O)c3cccc(CN4CCCc5c4cn[nH]c5=O)c3)CC2)nc1 [Compound 7] | 100 to 1000
O=C(CCOCCN1CCCc2c1cn[nH]c2=O)N1CCN(c2ncc(C(F)(F)F)cn2)CC1 [Compound 8] | ≤ 100
N#Cc1ccc(N2CCN(C(=O)c3cccc(Cn4ccc5c(=O)[nH]ncc54)c3)CC2)nc1 [Compound 9] | 100 to 1000
O=C(CCOCCn1ccc2c(=O)[nH]ncc21)N1CCN(c2ncc(C(F)(F)F)cn2)CC1 [Compound 10, 1-(2-(3-oxo-3-(4-(5-(trifluoromethyl)pyrimidin-2-yl)piperazin-1-yl)propoxy)ethyl)-1,5-dihydro-4H-pyrrolo[2,3-d]pyridazin-4-one] | ≤ 100
N#Cc1ccc(N2CCN(C(=O)c3cccc(CN4CCOc5c4cn[nH]c5=O)c3)CC2)nc1 [Compound 11] | 1000 to 10000
O=C(CCOCCN1CCOc2c1cn[nH]c2=O)N1CCN(c2ncc(C(F)(F)F)cn2)CC1 [Compound 12] | 100 to 1000
O=C(COCCOc1cccc2c(=O)[nH]cnc12)N1CCN(c2ncc(C(F)(F)F)cn2)CC1 [Compound 15] | 100 to 1000
O=C(CCOCCc1cccc2c(=O)[nH]cnc12)N1CCN(c2ncc(C(F)(F)F)cn2)CC1 [Compound 16] | 100 to 1000
O=C(COCCNc1cccc2c(=O)[nH]cnc12)N1CCN(c2ncc(C(F)(F)F)cn2)CC1 [Compound 17] | 1000 to 10000
N#Cc1ccc(N2CCN(C(=O)c3cccc(Cc4cccc5c(=O)[nH]c(=O)[nH]c45)c3)CC2)nc1 [Compound 18] | 100 to 1000
O=C(c1cccc(Cc2cccc3c(=O)[nH]c(=O)[nH]c23)c1)N1CCN(C(=O)C2CC2)CC1 [Compound 19] | 1000 to 10000
N#Cc1ccc(N2CCN(C(=O)c3cccc(Cc4cccc5c4CCNC5=O)c3)CC2)nc1 [Compound 20] | 100 to 1000
O=C1NCCc2c(Cc3cccc(C(=O)N4CCN(C(=O)C5CC5)CC4)c3)cccc21 [Compound 21] | 1000 to 10000
O=C1NCCc2c(OCCOCC(=O)N3CCN(c4ncc(C(F)(F)F)cn4)CC3)cccc21 [Compound 22] | 1000 to 10000
O=C1NCCc2c(CCOCCC(=O)N3CCN(c4ncc(C(F)(F)F)cn4)CC3)cccc21 [Compound 23] | 100 to 1000
N#Cc1ccc(N2CCN(C(=O)c3cccc(Cn4ncc5c(=O)[nH]ncc54)c3)CC2)nc1 [Compound 24] | 100 to 1000
O=C(c1cccc(Cc2cccc3c(=O)[nH]ncc23)c1)N1CCN(c2ncc(C(F)(F)F)cn2)CC1 [Compound 25] | ≤ 100
N#Cc1ccc(N2CCN(C(=O)c3cccc(Cc4cccc5c(=O)[nH]ncc45)c3)CC2)cc1 [Compound 26] | 1000 to 10000
O=C(c1cccc(Cc2cccc3c(=O)[nH]ncc23)c1)N1CCN(c2ccccc2)CC1 [Compound 27] | 1000 to 10000
